Test results published in patent publication US12275731B2, “Azaindole inhibitors of wild-type and mutant forms of LRRK2” (DANA-FARBER CANCER INSTITUTE, INC., priority 2018, dated 2025).

How the values were obtained:
Experiment in all cases: KinomeScan profiling
Type in all cases: binding
[1] = target: T1, RPS6KA4(Kin.Dom.1-N-terminal) (Homo sapiens, UniProt O75676); settings: read-out: % control
T1 construct: RPS6KA4(Kin.Dom.1-N-terminal)
T1 sequence (O75676 33-301 limits assumed): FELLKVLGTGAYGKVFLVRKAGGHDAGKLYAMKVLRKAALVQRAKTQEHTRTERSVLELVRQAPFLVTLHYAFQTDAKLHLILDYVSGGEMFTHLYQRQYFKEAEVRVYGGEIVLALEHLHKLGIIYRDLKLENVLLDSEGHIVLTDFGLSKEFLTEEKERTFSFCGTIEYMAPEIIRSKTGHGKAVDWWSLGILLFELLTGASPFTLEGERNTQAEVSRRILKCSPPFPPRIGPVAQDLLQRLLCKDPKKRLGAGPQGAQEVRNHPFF
Outline: (§1)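 Compounds were screened at 1 μM in DMSO across a 468-kinase KinomeScan panel. Binding was expressed as % control, scaled between a positive control (0%) and DMSO (100%) using luminescence signal. A value under 35% counted as active.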

STK33 = target: T2, STK33 (Homo sapiens, UniProt Q9BYT3); settings: STK33, 1 μM; read-out: % control
T2 construct: purchased KinomeScan® (panel service)
T2 sequence (Q9BYT3 whole entry): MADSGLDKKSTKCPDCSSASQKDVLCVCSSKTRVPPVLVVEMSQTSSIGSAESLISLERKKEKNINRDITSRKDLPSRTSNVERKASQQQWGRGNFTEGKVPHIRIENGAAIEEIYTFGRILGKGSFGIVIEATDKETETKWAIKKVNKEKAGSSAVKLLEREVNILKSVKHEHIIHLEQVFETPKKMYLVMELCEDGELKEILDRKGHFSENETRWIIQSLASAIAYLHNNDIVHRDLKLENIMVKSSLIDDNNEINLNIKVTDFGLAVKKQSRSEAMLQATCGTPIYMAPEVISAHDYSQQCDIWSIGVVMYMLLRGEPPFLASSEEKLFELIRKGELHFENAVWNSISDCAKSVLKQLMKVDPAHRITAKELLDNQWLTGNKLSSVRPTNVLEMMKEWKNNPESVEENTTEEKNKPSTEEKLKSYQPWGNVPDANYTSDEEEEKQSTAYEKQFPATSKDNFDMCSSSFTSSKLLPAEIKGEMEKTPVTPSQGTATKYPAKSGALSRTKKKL
Outline: as §1

GRK1 = target: T3, GRK1 (Homo sapiens, UniProt Q15835); settings: GRK1, 1 μM; read-out: % control
T3 sequence (Q15835 1-563): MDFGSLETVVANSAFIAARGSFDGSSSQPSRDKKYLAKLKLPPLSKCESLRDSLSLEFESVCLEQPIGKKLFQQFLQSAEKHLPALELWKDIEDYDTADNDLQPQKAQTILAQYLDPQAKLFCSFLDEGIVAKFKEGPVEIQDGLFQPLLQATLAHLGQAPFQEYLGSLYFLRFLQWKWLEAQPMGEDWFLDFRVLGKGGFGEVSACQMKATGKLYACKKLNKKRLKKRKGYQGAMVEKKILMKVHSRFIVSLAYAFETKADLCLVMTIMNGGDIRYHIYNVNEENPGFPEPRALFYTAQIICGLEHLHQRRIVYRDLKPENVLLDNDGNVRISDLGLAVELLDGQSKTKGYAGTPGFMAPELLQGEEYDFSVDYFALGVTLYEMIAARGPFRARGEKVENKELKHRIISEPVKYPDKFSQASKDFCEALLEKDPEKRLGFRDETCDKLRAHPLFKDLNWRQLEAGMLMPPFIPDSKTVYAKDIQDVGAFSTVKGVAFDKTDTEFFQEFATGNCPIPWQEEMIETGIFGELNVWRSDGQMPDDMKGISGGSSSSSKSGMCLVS
Outline: as §1

ERBB3 = ERBB3 (Homo sapiens, UniProt P21860); settings: ERBB3, 1 μM; read-out: % control
ERBB3, sequence (P21860 20-1342): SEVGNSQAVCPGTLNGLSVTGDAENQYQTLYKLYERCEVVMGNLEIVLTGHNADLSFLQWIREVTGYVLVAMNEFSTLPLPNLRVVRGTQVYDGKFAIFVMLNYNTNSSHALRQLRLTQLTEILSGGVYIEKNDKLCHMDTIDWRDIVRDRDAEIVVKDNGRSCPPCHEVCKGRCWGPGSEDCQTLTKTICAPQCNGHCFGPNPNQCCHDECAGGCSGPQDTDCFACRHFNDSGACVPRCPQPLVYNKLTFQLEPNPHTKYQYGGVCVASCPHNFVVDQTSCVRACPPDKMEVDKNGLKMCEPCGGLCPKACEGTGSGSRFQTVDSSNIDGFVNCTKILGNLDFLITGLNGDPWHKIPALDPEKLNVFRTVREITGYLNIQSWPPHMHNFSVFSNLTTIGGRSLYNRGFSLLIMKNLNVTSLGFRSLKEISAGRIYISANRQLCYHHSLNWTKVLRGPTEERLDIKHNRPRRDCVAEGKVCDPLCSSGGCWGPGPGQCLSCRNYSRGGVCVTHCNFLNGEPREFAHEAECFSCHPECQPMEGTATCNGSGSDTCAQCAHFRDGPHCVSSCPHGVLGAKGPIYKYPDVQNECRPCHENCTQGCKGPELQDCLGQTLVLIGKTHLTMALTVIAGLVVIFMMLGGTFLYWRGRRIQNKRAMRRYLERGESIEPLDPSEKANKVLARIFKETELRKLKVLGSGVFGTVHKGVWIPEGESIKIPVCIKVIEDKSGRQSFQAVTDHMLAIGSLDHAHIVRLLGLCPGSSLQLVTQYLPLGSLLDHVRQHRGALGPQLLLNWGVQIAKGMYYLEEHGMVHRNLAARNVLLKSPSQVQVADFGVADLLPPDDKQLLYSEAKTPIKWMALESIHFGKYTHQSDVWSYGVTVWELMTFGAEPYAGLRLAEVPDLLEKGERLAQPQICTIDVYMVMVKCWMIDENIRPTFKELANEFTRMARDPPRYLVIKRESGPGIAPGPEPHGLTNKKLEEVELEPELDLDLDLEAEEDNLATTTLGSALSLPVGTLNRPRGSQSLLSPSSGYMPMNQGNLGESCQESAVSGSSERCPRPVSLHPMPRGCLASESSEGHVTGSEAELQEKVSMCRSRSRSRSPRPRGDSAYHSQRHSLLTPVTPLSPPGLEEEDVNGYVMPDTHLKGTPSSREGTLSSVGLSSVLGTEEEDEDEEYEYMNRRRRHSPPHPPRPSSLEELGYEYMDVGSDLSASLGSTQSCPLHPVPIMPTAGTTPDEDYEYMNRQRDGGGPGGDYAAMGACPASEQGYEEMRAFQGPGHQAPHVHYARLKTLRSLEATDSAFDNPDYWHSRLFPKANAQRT
Outline: as §1

MKNK1 = MKNK1 (Homo sapiens, UniProt Q9BUB5); settings: MKNK1, 1 μM; read-out: % control
Outline: as §1

LCK = LCK (Homo sapiens, UniProt P06239); settings: read-out: % control
LCK, sequence (P06239 whole entry): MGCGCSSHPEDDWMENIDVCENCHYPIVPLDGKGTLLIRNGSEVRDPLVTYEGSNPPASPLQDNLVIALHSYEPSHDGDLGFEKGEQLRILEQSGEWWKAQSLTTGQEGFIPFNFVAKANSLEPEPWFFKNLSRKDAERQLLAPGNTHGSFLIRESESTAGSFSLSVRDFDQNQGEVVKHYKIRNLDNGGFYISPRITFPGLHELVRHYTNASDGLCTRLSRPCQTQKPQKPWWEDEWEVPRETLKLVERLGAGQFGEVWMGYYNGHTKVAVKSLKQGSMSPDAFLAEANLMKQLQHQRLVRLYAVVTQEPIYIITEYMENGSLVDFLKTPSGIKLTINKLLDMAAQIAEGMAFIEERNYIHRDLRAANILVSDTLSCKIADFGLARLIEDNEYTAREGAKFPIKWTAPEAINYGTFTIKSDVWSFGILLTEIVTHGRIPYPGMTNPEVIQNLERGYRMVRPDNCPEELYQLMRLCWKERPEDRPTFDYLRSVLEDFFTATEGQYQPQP
Outline: as §1

MAP3K2 = target: T4, MAP3K2 (Homo sapiens, UniProt Q9Y2U5); settings: MAP3K2, 1 μM; read-out: % control
T4 sequence (Q9Y2U5 1-619): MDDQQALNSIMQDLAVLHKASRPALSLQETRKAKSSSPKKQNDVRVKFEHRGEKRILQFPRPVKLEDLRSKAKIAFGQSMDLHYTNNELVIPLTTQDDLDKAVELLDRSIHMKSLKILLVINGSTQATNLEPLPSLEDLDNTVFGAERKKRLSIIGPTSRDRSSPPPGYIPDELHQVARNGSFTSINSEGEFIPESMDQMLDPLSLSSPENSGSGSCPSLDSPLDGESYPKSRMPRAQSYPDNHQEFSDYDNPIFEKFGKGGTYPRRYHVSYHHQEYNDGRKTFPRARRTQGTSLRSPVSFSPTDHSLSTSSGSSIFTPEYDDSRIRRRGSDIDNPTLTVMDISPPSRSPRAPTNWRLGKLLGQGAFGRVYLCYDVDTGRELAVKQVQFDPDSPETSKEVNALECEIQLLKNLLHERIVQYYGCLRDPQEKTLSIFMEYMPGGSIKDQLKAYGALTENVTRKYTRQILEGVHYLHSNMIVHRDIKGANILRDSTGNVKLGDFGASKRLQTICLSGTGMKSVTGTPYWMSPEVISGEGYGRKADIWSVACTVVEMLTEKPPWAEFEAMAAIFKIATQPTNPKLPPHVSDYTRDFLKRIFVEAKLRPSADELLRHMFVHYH
Outline: as §1

BMPR1B = target: T5, BMPR1B (Homo sapiens, UniProt O00238); settings: read-out: % control
T5 construct: purchased KinomeScan®
T5 sequence (O00238 14-502): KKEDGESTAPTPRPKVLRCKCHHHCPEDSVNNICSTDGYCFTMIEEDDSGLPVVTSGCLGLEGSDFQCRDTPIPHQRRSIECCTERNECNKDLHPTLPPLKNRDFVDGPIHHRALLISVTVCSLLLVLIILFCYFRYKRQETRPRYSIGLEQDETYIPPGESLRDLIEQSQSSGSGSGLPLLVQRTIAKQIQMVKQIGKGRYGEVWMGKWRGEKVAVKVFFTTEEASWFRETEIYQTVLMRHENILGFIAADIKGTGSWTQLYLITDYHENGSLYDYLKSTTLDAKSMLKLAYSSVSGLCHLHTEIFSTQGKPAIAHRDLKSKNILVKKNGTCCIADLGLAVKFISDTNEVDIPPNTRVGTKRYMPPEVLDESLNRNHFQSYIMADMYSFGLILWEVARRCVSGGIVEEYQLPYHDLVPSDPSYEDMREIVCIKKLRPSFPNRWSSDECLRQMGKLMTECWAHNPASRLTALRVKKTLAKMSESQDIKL
Outline: as §1

[2] = target: T6, JAK2(JH1domain-catalytic) (Homo sapiens, UniProt O60674); settings: read-out: % control
T6 construct: Janus kinase 2 (JAK2)(JH1domain-catalytic); purchased KinomeScan®
T6 sequence (O60674 849-1124 limits assumed): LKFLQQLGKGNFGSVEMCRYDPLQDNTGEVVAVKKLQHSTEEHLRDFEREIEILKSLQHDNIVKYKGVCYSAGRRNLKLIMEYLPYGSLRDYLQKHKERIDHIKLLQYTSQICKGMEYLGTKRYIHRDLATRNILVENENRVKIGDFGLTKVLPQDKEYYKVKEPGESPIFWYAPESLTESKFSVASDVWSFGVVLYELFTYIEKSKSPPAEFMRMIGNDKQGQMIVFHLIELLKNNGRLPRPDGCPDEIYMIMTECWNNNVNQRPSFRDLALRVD
Outline: as §1

MAP3K4 = MAP3K4 (Homo sapiens, UniProt Q9Y6R4); settings: MAP3K4, 1 μM; read-out: % control
MAP3K4, sequence (Q9Y6R4 whole entry): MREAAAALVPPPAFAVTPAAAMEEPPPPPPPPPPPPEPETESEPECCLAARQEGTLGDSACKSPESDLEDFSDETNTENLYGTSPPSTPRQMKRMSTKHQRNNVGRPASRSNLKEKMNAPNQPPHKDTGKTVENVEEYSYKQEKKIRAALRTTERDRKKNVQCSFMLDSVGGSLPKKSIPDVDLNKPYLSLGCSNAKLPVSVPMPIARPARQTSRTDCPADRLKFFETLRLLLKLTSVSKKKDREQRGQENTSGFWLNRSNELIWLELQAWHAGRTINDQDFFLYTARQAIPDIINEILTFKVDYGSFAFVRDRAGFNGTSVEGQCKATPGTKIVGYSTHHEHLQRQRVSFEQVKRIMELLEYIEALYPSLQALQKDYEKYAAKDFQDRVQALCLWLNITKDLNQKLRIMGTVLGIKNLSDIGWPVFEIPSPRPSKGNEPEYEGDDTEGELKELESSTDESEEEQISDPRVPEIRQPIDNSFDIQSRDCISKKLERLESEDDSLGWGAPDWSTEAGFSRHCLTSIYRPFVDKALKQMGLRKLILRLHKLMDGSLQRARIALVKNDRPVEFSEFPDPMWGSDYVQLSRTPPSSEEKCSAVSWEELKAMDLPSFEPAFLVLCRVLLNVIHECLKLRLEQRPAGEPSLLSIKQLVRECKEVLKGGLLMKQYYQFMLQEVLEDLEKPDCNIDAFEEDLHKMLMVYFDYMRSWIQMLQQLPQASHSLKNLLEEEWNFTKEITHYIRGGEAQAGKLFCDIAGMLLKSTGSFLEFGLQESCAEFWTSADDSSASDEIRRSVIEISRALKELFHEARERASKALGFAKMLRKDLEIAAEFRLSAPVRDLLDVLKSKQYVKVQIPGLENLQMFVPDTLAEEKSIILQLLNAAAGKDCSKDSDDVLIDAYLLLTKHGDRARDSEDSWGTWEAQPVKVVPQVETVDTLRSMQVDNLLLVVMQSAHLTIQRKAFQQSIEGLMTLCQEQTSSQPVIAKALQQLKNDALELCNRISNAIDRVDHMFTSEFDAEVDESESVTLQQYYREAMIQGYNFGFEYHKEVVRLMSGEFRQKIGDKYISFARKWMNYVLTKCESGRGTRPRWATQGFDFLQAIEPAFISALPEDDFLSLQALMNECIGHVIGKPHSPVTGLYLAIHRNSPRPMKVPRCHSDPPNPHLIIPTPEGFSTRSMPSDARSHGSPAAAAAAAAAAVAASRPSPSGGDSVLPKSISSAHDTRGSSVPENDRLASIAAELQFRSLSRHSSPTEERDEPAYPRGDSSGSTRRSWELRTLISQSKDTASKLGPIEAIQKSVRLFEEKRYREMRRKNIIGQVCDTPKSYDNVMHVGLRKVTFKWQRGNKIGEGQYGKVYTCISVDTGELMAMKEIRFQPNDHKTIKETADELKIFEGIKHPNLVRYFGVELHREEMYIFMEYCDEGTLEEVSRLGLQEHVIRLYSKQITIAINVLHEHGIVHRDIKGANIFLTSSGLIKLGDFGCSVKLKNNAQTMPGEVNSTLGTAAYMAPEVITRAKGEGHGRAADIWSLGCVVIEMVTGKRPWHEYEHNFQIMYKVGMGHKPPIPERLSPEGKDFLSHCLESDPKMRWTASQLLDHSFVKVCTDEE
Outline: as §1

CNc1c(-c2cnn([C@H]3CCN(C(C)=O)C[C@@H]3F)c2)cnc2[nH]cc(Cl)c12 [Compound 77, 1-((3S,4S)-4-(4-(3-chloro-4-(methylamino)-1H-pyrrolo[2,3-b]pyridin-5-yl)-1H-pyrazol-1-yl)-3-fluoropiperidin-1-yl)ethan-1-one]
remaining binding at 1 µM [1]: 97% | remaining binding at 1 µM (STK33): 100% | remaining binding at 1 µM (GRK1): 60% | remaining binding at 1 µM (ERBB3): 88% | remaining binding at 1 µM (MKNK1): 97% | remaining binding at 1 µM (LCK): 96% | remaining binding at 1 µM (MAP3K2): 25% | remaining binding at 1 µM (BMPR1B): 47% | remaining binding at 1 µM [2]: 7.9% | remaining binding at 1 µM (MAP3K4): 91%

O=C(c1ccc(-c2cnc3[nH]cc(Cl)c3c2NC2CCCC2)cc1)N1CCC(N2CCOCC2)CC1 [Compound 101, (4-(3-chloro-4-(cyclopentylamino)-1H-pyrrolo[2,3-b]pyridin-5-yl)phenyl)(4-morpholinopiperidin-1-yl)methanone]
remaining binding at 1 µM [1]: 84% | remaining binding at 1 µM (STK33): 100% | remaining binding at 1 µM (GRK1): 84% | remaining binding at 1 µM (ERBB3): 55% | remaining binding at 1 µM (MKNK1): 100% | remaining binding at 1 µM (LCK): 100% | remaining binding at 1 µM (MAP3K2): 35% | remaining binding at 1 µM (BMPR1B): 95% | remaining binding at 1 µM [2]: 100% | remaining binding at 1 µM (MAP3K4): 71%

CNc1c(-c2ccc(C(=O)N3CCC(N4CCOCC4)CC3)cc2)cnc2[nH]cc(Cl)c12 [Compound 96, (4-(3-chloro-4-(methylamino)-1H-pyrrolo[2,3-b]pyridin-5-yl)phenyl)(4-morpholinopiperidin-1-yl)methanone]
remaining binding at 1 µM [1]: 100% | remaining binding at 1 µM (STK33): 100% | remaining binding at 1 µM (GRK1): 63% | remaining binding at 1 µM (ERBB3): 86% | remaining binding at 1 µM (MKNK1): 100% | remaining binding at 1 µM (LCK): 100% | remaining binding at 1 µM (MAP3K2): 29% | remaining binding at 1 µM (BMPR1B): 54% | remaining binding at 1 µM [2]: 29% | remaining binding at 1 µM (MAP3K4): 68%
